Tested on: COVID-19 virus
Assay: Inhibition of COVID-19 virus replication in Vero E6 cells (vRNA in supernatant by qRT-PCR)
Assay type: cell-based, COVID-19 virus (clinical isolates) in Vero E6 cells
Conditions: for antiviral effect (viral RNA replication): Vero cells infected with COVID-19 virus, MOI 0.05, compound at concentrations of 30 μM and 10 μM, FIG. 2
Method: In order to further confirm the results of enzyme inhibition in vitro, whether the bromophenol-pyrazoline compounds can prevent COVID-19 virus replication in Vero E6 cells infected with clinical isolates of COVID-19 virus was evaluated in the present invention.
Specific operations: The pre-seeded Vero E6 cells (5×10^4 cells/well) were pre-treated for 1 hr with various concentrations of bromophenol-pyrazoline compounds to be tested, and then infected for 2 hrs by adding COVID-19 virus (with an MOI of 0.05). Then, the mixture of the virus and compound was removed, and the cells were further incubated in a fresh medium containing the bromophenol-pyrazoline compound. After 24 hrs, the cell supernatant was collected, and the vRNA in the supernatant was analyzed by qRT-PCR.

SMILES | EC50 (Severe acute respiratory syndrome coronavirus 2, Vero C1008, read-out: EC50, inhibition of virus replication) | antiviral effect (viral RNA replication)
CCOc1ccc(Oc2ccc(C3=NNC(c4cc(O)c(O)c(Br)c4Br)C3)cc2)cc1 (stereo not shown) [Compound 6a, 3,4-dibromo-5-(3-(4-(4-ethoxyphenoxy)phenyl)-4,5-dihydro-1H-pyrazol-5-yl)-1,2-dihydroxybenzene] | 4.45 µM | strong antiviral effects
CCOc1ccc(Oc2ccc(C3=NN(C=O)C(c4cc(O)c(O)c(Br)c4Br)C3)cc2)cc1 (stereo not shown) [Compound 6b, 5-(2,3-dibromo-4,5-dihydroxyphenyl)-3-(4-(4-ethoxyphenoxy)phenyl)-4,5-dihydro-1H-pyrazol-1-carboxaldehyde] |  | strong antiviral effects
CCOc1ccc(Oc2ccc(C3=NN(C(C)=O)C(c4cc(O)c(O)c(Br)c4Br)C3)cc2)cc1 (stereo not shown) [Compound 6c, 5-(2,3-dibromo-4,5-dihydroxyphenyl)-3-(4-(4-ethoxyphenoxy)phenyl)-4,5-dihydro-1H-1-acetyl pyrazole] |  | strong antiviral effects
